Data reported in patent publication US20250034216A1, “STEREOSELECTIVE COVALENT LIGANDS FOR ONCOGENIC AND IMMUNOLOGICAL PROTEINS” (The Scripps Research Institute, priority 2021, published 2025).

Assays:
Assay in all cases: IA-DTB cysteine engagement
Type in all cases: binding
[1] = target: T1, ABHD16A_C205 (Homo sapiens, UniProt O95870); conditions: 22Rv1 cells, relative to DMSO; for % engagement ABHD16A_205: 5 μM probe, 1 h (FIG. 5B); for % engagement ABHD16A_C205: 20 μM probe, 1 h
T1 construct: endogenous in cells; host or cells: 22Rv1
T1 sequence (O95870 1-558): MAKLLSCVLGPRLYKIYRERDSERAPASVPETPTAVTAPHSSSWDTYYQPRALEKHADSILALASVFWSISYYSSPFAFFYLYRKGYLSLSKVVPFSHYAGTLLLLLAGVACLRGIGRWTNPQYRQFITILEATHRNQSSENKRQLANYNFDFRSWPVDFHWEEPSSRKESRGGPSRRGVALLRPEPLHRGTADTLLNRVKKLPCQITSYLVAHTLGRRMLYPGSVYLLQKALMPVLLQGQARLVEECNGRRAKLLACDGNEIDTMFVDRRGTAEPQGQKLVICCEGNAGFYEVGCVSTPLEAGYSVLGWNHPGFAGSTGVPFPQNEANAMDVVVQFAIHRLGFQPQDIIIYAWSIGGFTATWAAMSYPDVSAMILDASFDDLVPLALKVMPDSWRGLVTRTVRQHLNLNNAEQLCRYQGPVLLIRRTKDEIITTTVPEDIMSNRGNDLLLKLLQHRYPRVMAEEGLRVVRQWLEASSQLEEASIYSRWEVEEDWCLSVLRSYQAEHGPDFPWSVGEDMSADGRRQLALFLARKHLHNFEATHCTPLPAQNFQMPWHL
In short: (§1)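 Competitive chemoproteomics: residual cysteine reactivity toward IA-DTB in lysates from probe-treated cells was quantified by TMT reporter ions relative to DMSO-treated controls. Replicates sharing cell line, probe, concentration and duration were averaged.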

[2] = target: T2, YES1_C287 (Homo sapiens, UniProt P07947); conditions: 22Rv1 cells, relative to DMSO; for % engagement YES1_287: 5 μM probe, 1 h (FIG. 5B); for % engagement YES1_C287: 20 μM probe, 1 h
T2 construct: endogenous in cells; host or cells: 22Rv1
In short: as §1

[3] = target: T3, ZFC3H1_C1778 (Homo sapiens, UniProt O60293); conditions: 22Rv1 cells, 20 μM probe, 1 h, relative to DMSO
T3 construct: endogenous in cells; host or cells: 22Rv1
In short: as §1

[4] = target: T4, NSUN3_C298 (Homo sapiens, UniProt Q9H649); conditions: 22Rv1 cells, 20 μM probe, 1 h, relative to DMSO
T4 construct: endogenous in cells; host or cells: 22Rv1
T4 sequence (Q9H649 1-340): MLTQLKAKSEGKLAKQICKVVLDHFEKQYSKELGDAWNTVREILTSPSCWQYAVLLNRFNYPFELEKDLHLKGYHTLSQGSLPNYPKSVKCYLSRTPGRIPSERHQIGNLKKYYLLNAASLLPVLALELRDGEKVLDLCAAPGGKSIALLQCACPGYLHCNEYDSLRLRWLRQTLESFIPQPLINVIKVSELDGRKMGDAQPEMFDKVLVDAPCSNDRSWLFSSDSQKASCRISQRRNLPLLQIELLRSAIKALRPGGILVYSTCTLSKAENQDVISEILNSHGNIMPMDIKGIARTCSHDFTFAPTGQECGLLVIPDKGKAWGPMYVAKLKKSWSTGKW
In short: as §1

[5] = target: T5, PTGES2_C110 (Homo sapiens, UniProt Q9H7Z7); conditions: 22Rv1 cells, 20 μM probe, 1 h, relative to DMSO
T5 construct: endogenous in cells; host or cells: 22Rv1
In short: as §1

T2 sequence (P07947 whole entry): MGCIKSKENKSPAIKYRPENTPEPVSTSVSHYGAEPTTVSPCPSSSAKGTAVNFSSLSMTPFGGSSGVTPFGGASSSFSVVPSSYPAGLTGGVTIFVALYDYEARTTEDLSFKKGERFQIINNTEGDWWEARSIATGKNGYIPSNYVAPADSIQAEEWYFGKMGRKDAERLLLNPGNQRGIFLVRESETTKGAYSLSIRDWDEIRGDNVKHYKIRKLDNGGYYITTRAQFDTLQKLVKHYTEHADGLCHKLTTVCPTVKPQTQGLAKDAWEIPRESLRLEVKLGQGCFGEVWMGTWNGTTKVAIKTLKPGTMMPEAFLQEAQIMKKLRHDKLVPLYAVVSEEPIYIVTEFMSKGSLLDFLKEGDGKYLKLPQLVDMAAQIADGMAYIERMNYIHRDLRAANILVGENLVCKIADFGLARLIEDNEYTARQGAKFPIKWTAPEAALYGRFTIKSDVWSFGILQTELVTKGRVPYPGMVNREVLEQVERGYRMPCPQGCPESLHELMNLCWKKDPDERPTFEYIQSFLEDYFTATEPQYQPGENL
T5 sequence (Q9H7Z7 whole entry): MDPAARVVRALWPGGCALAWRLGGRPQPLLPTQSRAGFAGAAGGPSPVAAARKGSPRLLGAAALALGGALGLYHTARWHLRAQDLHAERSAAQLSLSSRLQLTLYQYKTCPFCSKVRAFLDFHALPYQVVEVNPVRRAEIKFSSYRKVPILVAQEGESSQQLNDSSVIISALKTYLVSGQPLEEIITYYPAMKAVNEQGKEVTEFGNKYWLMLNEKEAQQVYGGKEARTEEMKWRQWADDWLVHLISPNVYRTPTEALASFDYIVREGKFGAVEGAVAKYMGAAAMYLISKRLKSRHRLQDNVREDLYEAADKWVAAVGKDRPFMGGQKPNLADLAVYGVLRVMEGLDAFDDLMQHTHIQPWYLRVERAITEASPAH
T3 sequence (O60293 whole entry): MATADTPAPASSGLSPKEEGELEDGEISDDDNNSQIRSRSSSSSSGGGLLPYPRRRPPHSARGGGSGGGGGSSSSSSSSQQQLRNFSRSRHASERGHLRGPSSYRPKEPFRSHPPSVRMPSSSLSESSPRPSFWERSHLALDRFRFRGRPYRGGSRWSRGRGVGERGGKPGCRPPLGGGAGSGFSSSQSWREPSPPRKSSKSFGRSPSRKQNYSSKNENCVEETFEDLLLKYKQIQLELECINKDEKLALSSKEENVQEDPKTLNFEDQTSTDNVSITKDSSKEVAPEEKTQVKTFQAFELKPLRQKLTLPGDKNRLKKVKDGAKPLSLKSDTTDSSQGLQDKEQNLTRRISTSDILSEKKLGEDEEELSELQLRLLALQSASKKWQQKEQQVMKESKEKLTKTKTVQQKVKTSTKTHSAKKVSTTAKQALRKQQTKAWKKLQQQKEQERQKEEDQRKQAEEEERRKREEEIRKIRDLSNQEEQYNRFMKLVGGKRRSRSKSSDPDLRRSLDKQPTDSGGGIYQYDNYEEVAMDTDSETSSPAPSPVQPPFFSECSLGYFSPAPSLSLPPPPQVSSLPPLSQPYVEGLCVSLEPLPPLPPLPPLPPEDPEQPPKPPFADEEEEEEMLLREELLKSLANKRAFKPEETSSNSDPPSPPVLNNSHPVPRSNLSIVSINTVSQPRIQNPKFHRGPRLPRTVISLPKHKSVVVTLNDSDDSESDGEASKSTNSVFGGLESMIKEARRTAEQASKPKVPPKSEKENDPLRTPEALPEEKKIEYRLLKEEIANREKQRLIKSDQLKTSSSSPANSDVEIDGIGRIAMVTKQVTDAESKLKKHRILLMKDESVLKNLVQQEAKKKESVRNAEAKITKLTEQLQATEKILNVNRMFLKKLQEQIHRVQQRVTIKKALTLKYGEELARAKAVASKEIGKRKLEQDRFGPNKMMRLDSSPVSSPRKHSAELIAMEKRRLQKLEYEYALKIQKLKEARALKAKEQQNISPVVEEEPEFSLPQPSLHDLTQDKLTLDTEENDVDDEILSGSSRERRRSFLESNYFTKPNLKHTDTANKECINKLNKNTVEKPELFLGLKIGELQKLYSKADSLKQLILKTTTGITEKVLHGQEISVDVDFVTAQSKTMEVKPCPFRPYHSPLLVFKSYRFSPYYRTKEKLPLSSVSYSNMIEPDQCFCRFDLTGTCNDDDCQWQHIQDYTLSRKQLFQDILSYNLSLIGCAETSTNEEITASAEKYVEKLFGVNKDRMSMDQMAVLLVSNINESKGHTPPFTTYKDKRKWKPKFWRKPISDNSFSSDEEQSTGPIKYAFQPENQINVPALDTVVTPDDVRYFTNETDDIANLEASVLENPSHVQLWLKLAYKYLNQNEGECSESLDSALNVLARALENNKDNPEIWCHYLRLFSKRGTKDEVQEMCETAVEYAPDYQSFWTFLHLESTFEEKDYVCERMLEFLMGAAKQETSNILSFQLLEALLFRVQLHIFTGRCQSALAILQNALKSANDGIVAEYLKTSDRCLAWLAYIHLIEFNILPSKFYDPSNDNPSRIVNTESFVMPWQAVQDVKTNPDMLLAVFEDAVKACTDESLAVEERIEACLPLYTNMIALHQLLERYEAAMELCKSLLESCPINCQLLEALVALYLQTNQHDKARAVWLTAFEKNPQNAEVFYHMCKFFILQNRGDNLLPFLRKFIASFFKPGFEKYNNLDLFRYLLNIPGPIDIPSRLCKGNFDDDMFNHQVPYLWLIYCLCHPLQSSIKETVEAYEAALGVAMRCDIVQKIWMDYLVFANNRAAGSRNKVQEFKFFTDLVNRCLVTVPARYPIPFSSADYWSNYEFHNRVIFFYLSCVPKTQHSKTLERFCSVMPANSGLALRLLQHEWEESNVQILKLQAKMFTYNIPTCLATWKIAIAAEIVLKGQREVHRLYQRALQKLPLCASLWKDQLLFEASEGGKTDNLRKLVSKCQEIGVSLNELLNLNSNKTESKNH

Row | SMILES | % engagement ABHD16A_205 [1] [%] | % engagement YES1_287 [2] [%] | % engagement ABHD16A_C205 [1] [%] | % engagement ZFC3H1_C1778 [3] [%] | % engagement NSUN3_C298 [4] [%] | % engagement PTGES2_C110 [5] [%] | % engagement YES1_C287 [2] [%]
1 | CC#CC(=O)N1C[C@H](c2ccc(Br)cc2)[C@@H]1C(=O)Nc1cccc2cccnc12 [MY-45B, (2R,3S)-3-(4-bromophenyl)-1-(but-2-ynoyl)-N-(quinolin-8-yl)azetidine-2-carboxamide] | 62.50 | 5.50 |  |  |  |  | 
2 | C=CC(=O)N1C[C@H](c2ccc(Br)cc2)[C@H]1C(=O)Nc1cccc2cccnc12 [MY-3A, (2S,3S)-1-acryloyl-3-(4-bromophenyl)-N-(quinolin-8-yl)azetidine-2-carboxamide] |  |  | 73.25 | 47.75 | 38 | 69.75 | 0.5
3 | C=CC(=O)N1C[C@@H](c2ccc(Br)cc2)[C@H]1C(=O)Nc1cccc2cccnc12 [MY-1A, (2S,3R)-1-acryloyl-3-(4-bromophenyl)-N-(quinolin-8-yl)azetidine-2-carboxamide] |  |  | 67.75 | 70.75 | 35.5 | 31.25 | 5.75
4 | C=CC(=O)N1C[C@H](c2ccc(Br)cc2)[C@@H]1C(=O)Nc1cccc2cccnc12 [MY-1B, (2R,3S)-1-acryloyl-3-(4-bromophenyl)-N-(quinolin-8-yl)azetidine-2-carboxamide] | 83.67 | 67.13 | 80.25 | 7 | 55.5 | 38.5 | 94.5
5 | C=CC(=O)N1C[C@H](c2ccc(Br)cc2)[C@H]1C(=O)Nc1cccc2cccnc12 [MY-3B, (2S,3S)-1-acryloyl-3-(4-bromophenyl)-N-(quinolin-8-yl)azetidine-2-carboxamide] |  |  | 77.25 | −22.75 | 83 | 89.25 | 42.25
